Laboratory results taken from patent publication US20140066365A1, “USE OF CALIXARENES ASSOCIATED WITH AN ANTIBIOTIC IN THE TREATMENT OF BACTERIAL INFECTIONS” (priority 2011, published 2014).
In brackets after ≈: the same amount, converted by molar mass. Read-outs that look alike come from different tables or passages of the source. Values belong to the molecule of their own block, whether it stands above or below them.

Experiments:
Type in all cases: cell-based
[1] = test system: EcR2: Cephalosporinase-Hyperproducing Strain of Escherichia coli; experiment: Antibiogram by the disk diffusion technique; settings: for Results: EcR2, rows that print a diameter; for CA-SFM Interpretation / CLSI Interpretation / EUCAST Interpretation: from diameter; for CA-SFM Interpretation: CA-SFM 2011; for CLSI Interpretation: CLSI 2011; for EUCAST Interpretation: EUCAST 2011
Protocol: The bacterial and antibiogramidentification is carried out by the VITEK 1 system (bioMérieux) and by the disk diffusion technique

[2] = test system: Pseudomonas aeruginosa strain PaR2; experiment: microbe, parasite or virus in culture; settings: Pseudomonas aeruginosa, antibiotic alone (second value of cell), read-out: MIC
Source text: (§1) The MICs of the antibiotics were previously defined for each strain, by the method of microdilution in a liquid medium (CLSI (Clinical and Laboratory Standards Institute), 2003).

[3] = test system: PaR5: Pseudomonas aeruginosa; experiment: Antibiogram by the disk diffusion technique; settings: for Diameter / Results / CA-SFM Interpretation / CLSI Interpretation / EUCAST Interpretation: PaR5; for Diameter / Results: Table I1; for Results: against Dmin-Dmax; for diameter in mm: disk diffusion inhibition diameter, strain PaR5; for CA-SFM Interpretation / CLSI Interpretation / EUCAST Interpretation: disk diffusion; for CA-SFM Interpretation: versus critical diameter CA-SFM 2011; for CLSI Interpretation: versus critical diameter CLSI 2011; for EUCAST Interpretation: versus critical diameter EUCAST 2011, for ** antibiotics the disk load differs and the EUCAST interpretation is not applicable
Protocol: (§2) The bacterial and antibiogramidentification is carried out by the VITEK 2 system (bioMérieux) and by the disk diffusion technique

[4] = test system: PaR3: Pseudomonas aeruginosa; experiment: Antibiogram, MIC by the VITEK 2 system; settings: for CA-SFM Interpretation: Cc CA-SFM 2011; for CLSI Interpretation: Cc CLSI 2011; for EUCAST Interpretation: Cc EUCAST 2011
Protocol: (§3) The bacterial and antibiogramidentification is carried out by the VITEK 2 system (bioMérieux)

[5] = test system: EcR1: Penicillinase-Producing Escherichia coli without Associated Resistance; experiment: Antibiogram, MIC by the VITEK 2 system; settings: for CA-SFM Interpretation: EcR1, MIC against Cc CA-SFM 2011; for CLSI Interpretation: EcR1, MIC against Cc CLSI 2011; for EUCAST Interpretation: EcR1, MIC against Cc EUCAST 2011; for Results: EcR1, interpretation of the MIC, Table A1; for MIC: Escherichia coli
Protocol: (§4) 5.1 EcR1: Penicillinase-Producing Escherichia coli without Associated Resistance The bacterial and antibiogramidentification is carried out by the VITEK 2 system (bioMérieux) and by the disk diffusion technique.

[6] = test system: Escherichia coli, Staphylococcus aureus and Pseudomonas aeruginosa strains; experiment: Chessboard technique, summary statements over all strains and combinations tested; settings: strain not stated
Source text: 1.3. Procedure: Chessboard Technique
The same procedure is followed for the Cx1. […] Thus 64 ATB/Cx1 combinations are obtained.
The FIC (Fractional Inhibitory Concentration Index) value is defined by the following formula: […]
When FIC≦0.5, there is a synergistic effect between antibiotic A and antibiotic B.
When 0.5<FIC≦1, there is an additive effect between antibiotic A and antibiotic B.
When 1<FIC≦4, there is an indifferent effect between antibiotic A and antibiotic B.
When FIC>4, there is an antagonistic effect between antibiotic A and antibiotic B.
For each strain and each antibiotic/Cx1 combination, the experiments were repeated a minimum of 3 times.

[7] = test system: PaR2: Pseudomonas aeruginosa; settings: for CA-SFM Interpretation: Cd CA-SFM 2011; for CLSI Interpretation: Cd CLSI 2011; for EUCAST Interpretation: Cd EUCAST 2011; for Diameter: Table G1; for Results: Table G1, against Dmin-Dmax; for diameter in mm: Table G2
Protocol: as §2

[8] = test system: mucoid strain of Pseudomonas aeruginosa PaR5; experiment: MIC of the compounds used alone, microdilution in a liquid medium (CLSI); settings: Pseudomonas aeruginosa, antibiotic alone (second value of cell), read-out: MIC
Source text: as §1

[9] = test system: Pseudomonas aeruginosa strain PaR3; experiment: as above; settings: Pseudomonas aeruginosa, antibiotic alone (second value of cell), read-out: MIC
Source text: as §1

[10] = test system: cephalosporinase-hyperproducing strain of Escherichia coli (EcR2); experiment: as above; settings: Escherichia coli, antibiotic alone (second value of cell), read-out: Initial MICs
Source text: as §1

[11] = test system: penicillinase-producing strain of Escherichia coli without associated resistance (EcR1); experiment: as above; settings: Escherichia coli, antibiotic alone (second value of cell), read-out: Initial MICs
Source text: as §1

[12] = test system: Pseudomonas aeruginosa strain ATCC 27853 (wild type); experiment: as above; settings: Pseudomonas aeruginosa, ATCC27853; antibiotic alone (second value of cell); P. aeruginosa ATCC 27853; read-out: MIC
Source text: as §1

[13] = test system: Escherichia coli strain ATCC 25922 (wild type); experiment: as above; settings: Escherichia coli, ATCC25922; antibiotic alone (second value of cell); E. coli ATCC 25922; read-out: Initial MICs
Source text: as §1

[14] = test system: ESBL-producing strain of Escherichia coli, having an associated resistance to the aminoglycosides (EcR3); experiment: as above; settings: Escherichia coli, antibiotic alone (second value of cell), read-out: Initial MICs
Source text: as §1

[15] = test system: EcR1: Penicillinase-Producing Escherichia coli without Associated Resistance; experiment: Antibiogram by the disk diffusion technique; settings: Table A1
Protocol: as §4

[16] = test system: SaR3: Meticillin-Resistant Staphylococcus aureus; experiment: Antibiogram by the disk diffusion technique
Protocol: as §2

[17] = test system: SaR4: Meticillin-Resistant Staphylococcus aureus; experiment: Antibiogram by the disk diffusion technique
Protocol: as §2

[18] = test system: SaR1: Meticillin-Resistant Staphylococcus aureus without Associated Resistance; experiment: Antibiogram, MIC by the VITEK 2 system; settings: SaR1
Protocol: as §3

[19] = test system: SaR1: Meticillin-Resistant Staphylococcus aureus without Associated Resistance; experiment: Antibiogram, inhibition diameter (Table D1)
Protocol: as §3

[20] = test system: EcR3: ESBL-Producing Escherichia coli; experiment: Antibiogram by the disk diffusion technique
Protocol: The bacterial and antibiogramidentification is carried out by the VITEK 2 system (bioMerieux) and by the disk diffusion technique

[21] = Pseudomonas aeruginosa, Table H2, read-out: MIC
[22] = EcR1, Table A2, read-out: MIC mg/L (diameter in mm)
[23] = EcR1, VITEK 2, Table A1, read-out: MIC

SMILES: CC(C)(O/N=C(\C(=O)N[C@@H]1C(=O)N2C(C(=O)[O-])=C(C[n+]3ccccc3)CS[C@H]12)c1csc(N)n1)C(=O)O [Ceftazidime]
Diameter ([1]; EcR2, disk diffusion, Table B1): 20 | Results ([1]; Table B1): Intermediate | Diameter ([1]; EcR2, Table B2, diameters): 20 mm | CA-SFM Interpretation ([1]; EcR2): Resistant | CLSI Interpretation ([1]; EcR2): Intermediate | EUCAST Interpretation ([1]; EcR2): Intermediate | MIC [2]: 8 µg/mL (≈ 14.6 µM) | Diameter [3]: 32 mm | Results [3]: Susceptible | diameter in mm [3]: 32 mm | CA-SFM Interpretation [3]: Susceptible | CLSI Interpretation [3]: Susceptible | EUCAST Interpretation [3]: Susceptible | CA-SFM Interpretation [4]: Susceptible | CLSI Interpretation [4]: Susceptible | EUCAST Interpretation [4]: Susceptible | MIC [4, 21]: 4 µg/mL (≈ 7.32 µM) | MIC ([4]; Table H1): 4 µg/mL (≈ 7.32 µM) | Results ([4]; Table H1): Susceptible | CA-SFM Interpretation [5]: Susceptible | CLSI Interpretation [5]: Susceptible | EUCAST Interpretation [5]: Susceptible | Results [5]: Susceptible | MIC [5, 22]: ≤ 1 mg/L | MIC [5, 23]: ≤ 1 mg/L | interaction between the antibiotic and Cx1 [6]: synergism | CA-SFM Interpretation [7]: Susceptible | CLSI Interpretation [7]: Susceptible | EUCAST Interpretation [7]: Susceptible | Diameter [7]: 23 mm | Results [7]: Susceptible | diameter in mm [7]: 23 mm | MIC [8]: 8 µg/mL | MIC [9]: 16 µg/mL | MIC [10]: 8 µg/mL | MIC [11]: 0.25 µg/mL | MIC [12]: 4 µg/mL | MIC [13]: 0.125 µg/mL | MIC [14]: 1 µg/mL

MIC [2]: 1 µg/mL (≈ 2.14 µM) | MIC mg/L ([18]; Table D2): ≦1 mg/L | MIC ([18]; Staphylococcus aureus, Table D1, read-out: MIC): ≤ 1 µg/mL | MIC [4, 21]: ≥ 16 µg/mL | MIC ([4]; Table H1): ≧16 | MIC [5, 22]: ≤ 1 mg/L | MIC [5, 23]: ≤ 1 mg/L | MIC [8]: 1 µg/mL | MIC [9]: 64 µg/mL | MIC [10]: 4 µg/mL | MIC [11]: 0.25 µg/mL | MIC [12]: 0.5 µg/mL | MIC [13]: 0.25 µg/mL | MIC [14]: 4 µg/mL
SMILES: NC[C@H]1O[C@H](O[C@H]2[C@H](O)[C@@H](O[C@H]3O[C@H](CO)[C@@H](O)[C@H](N)[C@H]3O)[C@H](N)C[C@@H]2N)[C@H](N)C[C@@H]1O [Tobramycin]
Diameter ([1]; EcR2, disk diffusion, Table B1): 10 | Results ([1]; Table B1): Resistant | Diameter ([1]; EcR2, Table B2, diameters): 10 mm | CA-SFM Interpretation ([1]; EcR2): Resistant | CLSI Interpretation ([1]; EcR2): Resistant | EUCAST Interpretation ([1]; EcR2): Resistant | Diameter ([15]; EcR1, disk diffusion): 19 mm | Results ([15]; EcR1, interpretation of the diameter against Dmin Dmax): Susceptible | CA-SFM Interpretation ([16]; Cd CA-SFM 2011): Resistant | CLSI Interpretation ([16]; Cd CLSI 2011): Resistant | EUCAST Interpretation ([16]; Cd EUCAST 2011): Resistant | Diameter ([16]; Table E1): 6 mm | Results ([16]; Table E1, against Dmin Dmax): Resistant | diameter in mm ([16]; Table E2): 6 mm | Diameter ([17]; Table F1): 6 | Results ([17]; Table F1, rows with a diameter): Resistant | Diameter ([17]; Table F2, diameters): 6 mm | CA-SFM Interpretation ([17]; from diameter, CA-SFM 2011): Resistant | CLSI Interpretation ([17]; from diameter, CLSI 2011): Resistant | EUCAST Interpretation ([17]; from diameter, EUCAST 2011): Resistant | Diameter [3]: 28 mm | Results [3]: Susceptible | diameter in mm [3]: 28 mm | CA-SFM Interpretation [3]: Susceptible | CLSI Interpretation [3]: Susceptible | EUCAST Interpretation [3]: Susceptible | CA-SFM Interpretation ([18]; Cc CA-SFM 2011): Susceptible | CLSI Interpretation ([18]; Cc CLSI 2011): Susceptible | EUCAST Interpretation ([18]; Cc EUCAST 2011): Susceptible | Results ([18]; Table D1, from MIC): Susceptible | CA-SFM Interpretation [4]: Resistant | CLSI Interpretation [4]: Resistant | EUCAST Interpretation [4]: Resistant | Results ([4]; Table H1): Resistant | CA-SFM Interpretation [5]: Susceptible | CLSI Interpretation [5]: Susceptible | EUCAST Interpretation [5]: Susceptible | Results [5]: Susceptible | interaction between the antibiotic and Cx1 [6]: synergism | Diameter [19]: 22 mm | Results ([19]; from diameter, against Dmin Dmax): Susceptible | CA-SFM Interpretation [7]: Susceptible | CLSI Interpretation [7]: Susceptible | EUCAST Interpretation [7]: Susceptible | Diameter [7]: 24 mm | Results [7]: Susceptible | diameter in mm [7]: 24 mm | CA-SFM Interpretation ([20]; Cd CA-SFM 2011): Resistant | CLSI Interpretation ([20]; Cd CLSI 2011): Resistant | EUCAST Interpretation ([20]; Cd EUCAST 2011): Resistant | Diameter ([20]; Table C1): 6 mm | Results ([20]; Table C1, against Dmin Dmax): Resistant | diameter in mm ([20]; Table C2): 6 mm
